Like-named read-outs stand apart in the source and are kept apart here.
Columns and labels:
ME-180 cells = test: Cancer cell proliferation assay, ME-180; assay type: cell-based; details: Homo sapiens; for Emax: read-out: ME-180 3-Day Viability Efficacy
Experimental: (§1) HCT116 and ME-180 cells (ATCC) were cultured according to manufacturer's instructions. […] Cell proliferation was quantified as relative luminescence unit (RLU) values using CellTiter-Glo viability assay reagent on a ViewLux plate reader (Perkin Elmer).

[1] = test system: hypoxia response element-beta-lactamase (HRE–bla); test: HRE-bla reporter gene assay in ME-180 cells; assay type: cell-based, human; details: Homo sapiens
Experimental: (§2) Cell culture of HRE–bla ME-180 cells (Cat. No. K1644, Life Technologies) and HRE–bla assay were conducted according to a reported protocol [6]. […] The fluorescence signals (460/25 nm and 530/20 nm) of CCF4 and luminescence signals of CellTiter-Glo were acquired on an Envision and a ViewLux plate readers (Perkin Elmer), respectively.

HCT116 cells = test: Cancer cell proliferation assay, HCT116; assay type: cell-based, human; details: for IC50 / Emax: Homo sapiens; for Emax: read-out: HCT116 3-Day Viability Efficacy
Experimental: as §1

HRE–bla ME-180 cells = test: Viability (BLA): CellTiter-Glo counter screen in HRE–bla cells; assay type: cell-based, human; details: for Viability (BLA) confirmatory IC50: Table S7, 1% O2, 18 h; for IC50 / Emax: Homo sapiens, ME-180, Table S7, confirmatory screen; for IC50: 1% O2, 18 h; for Emax: read-out: Viability (BLA) confirmatory Efficacy
Experimental: as §2

[2] = test system: co-cultures of human aortic endothelial cells and human mesenchymal stem cells; test: In vitro angiogenesis co-culture assay (tube formation); assay type: cell-based; details: Homo sapiens, 72 h, Table 1, three-day exposure; for IC50: tube formation; for Emax: percentage of inhibition compared to DMSO controls, read-out: Angiogenesis Efficacy (converted)
Experimental: Cells were seeded in a 96-well clear bottom plate (Corning) for five hours and exposed to test compounds for three days at 37°C, 5% CO2.

HIF-1α–NanoLuc = HIF-1α–NanoLuc reporter gene assay (qHTS primary and confirmatory screens); assay type: cell-based, human; details: Homo sapiens
[3] = test system: HIF-1α–NanoLuc HCT116 cells; test: Viability (Luc): CellTiter-Glo counter screen in HIF-1α–NanoLuc cells; assay type: cell-based, human; details: for Viability (Luc) confirmatory IC50: Table S7, 1% O2, 18 h
[4] = ME-180, Table 1, 72 h, read-out: 72-hr Viability ME-180 IC50
[5] = ME-180, Table 1, percentage of inhibition compared to DMSO controls, read-out: HRE-bla Efficacy (converted)
[6] = ME-180, Table S7, confirmatory screen, read-out: HRE–bla confirmatory Efficacy
[7] = Table 1, ME-180 cells, 1% O2, 18 h, read-out: HRE-bla IC50
[8] = HCT-116, Table 1, 72 h, read-out: 72-hr Viability HCT116 IC50
[9] = 18 h, read-out: IC50 (primary screen, HIF-1α–NanoLuc assay)
[10] = read-out: Efficacy (primary screen, HIF-1α–NanoLuc assay)
[11] = read-out: HIF-1α–NanoLuc confirmatory Efficacy
[12] = read-out: HIF-1α–NanoLuc primary Efficacy
[13] = ME-180, 72 h, Table S8, 3 days, read-out: ME-180 3-Day Viability IC50
[14] = ME-180, Table S7, confirmatory screen, read-out: HRE–bla confirmatory IC50
[15] = HCT-116, 72 h, Table S8, 3 days
[16] = HCT-116, 72 h, Table S8, 3 days, read-out: HCT116 3-Day Viability IC50
[17] = read-out: HIF-1α–NanoLuc confirmatory IC50
[18] = Table S2, validation, read-out: Pathway inhibitors (validation) HIF-1α–NanoLuc Activity Efficacy
[19] = Table S2, validation, read-out: Pathway inhibitors (validation) HIF-1α–NanoLuc Activity IC50
[20] = Table S7, confirmatory screen, read-out: HIF-1α–NanoLuc confirmatory Efficacy
[21] = Table S2, primary screen, read-out: Pathway inhibitors (primary screen) HIF-1α–NanoLuc Activity Efficacy
[22] = Table S2, primary screen, read-out: Pathway inhibitors (primary screen) HIF-1α–NanoLuc Activity IC50
[23] = Table S7, primary screen, read-out: HIF-1α–NanoLuc primary Efficacy

| Structure (SMILES) | IC50 (ME-180 cells; [4]) [nM] | Emax [1, 5] [%] | Emax [1, 6] [%] | IC50 [1, 7] [nM] | IC50 (HIF-1α–NanoLuc; [9]) [nM] | Emax (HIF-1α–NanoLuc; [10]) [%] | Emax (HIF-1α–NanoLuc; [11]) [%] | Emax (HIF-1α–NanoLuc; [12]) [%] | Emax (ME-180 cells; ME-180, 72 h, Table S8, 3 days) [%] | IC50 (ME-180 cells; [13]) [nM] | IC50 [1, 14] [nM] | Viability (Luc) confirmatory IC50 [3] | Emax (HCT116 cells; [15]) [%] | IC50 (HCT116 cells; [16]) [nM] | IC50 (HRE–bla ME-180 cells) [nM] | Emax (HIF-1α–NanoLuc; [18]) [%] | Emax (HIF-1α–NanoLuc; [20]) [%] | also measured |
| --- | --- | --- | --- | --- | --- | --- | --- | --- | --- | --- | --- | --- | --- | --- | --- | --- | --- | --- |
| Nc1ncn([C@@H]2O[C@H](CO)[C@@H](O)[C@H]2O)c(=O)n1 [5-Azacitidine] | 18600 | 94 | 94 ± 2 | 11000 ± 750 | – | – | – | – | – | – | – | – | – | – | – | – | – | IC50 (HCT116 cells; [8]): 13300 ± 1520 nM; Viability (BLA) confirmatory IC50 (HRE–bla ME-180 cells): Inactive; IC50 [2]: 4060 ± 1490 nM; Emax [2]: 80% |
| CC[C@@]1(O)C(=O)OCc2c1cc1n(c2=O)Cc2cc3ccccc3nc2-1 [Camptothecin] | 40 | 84 | 84 ± 1 | 200 ± 60 | – | – | – | – | – | – | – | – | – | – | – | – | – | IC50 (HCT116 cells; [8]): 1000 ± 290 nM; Viability (BLA) confirmatory IC50 (HRE–bla ME-180 cells): Inactive; IC50 [2]: 0.27 ± 0.31 nM; Emax [2]: 134% |
| COc1cccc2c1C(=O)c1c(O)c3c(c(O)c1C2=O)C[C@@](O)(C(C)=O)C[C@@H]3O[C@H]1C[C@H](N)[C@H](O)[C@H](C)O1 [Daunorubicin] | – | – | 80 ± 5 | – | 750 | 51 | 98 ± 8 | 51 | 101 ± 4 | 170 ± 80 | 1000 ± 440 | Inactive | 79 ± 28 | 2430 ± 1400 | 3280 ± 1230 | – | – | Emax (HIF-1α–NanoLuc; read-out: Pathway inhibitors (primary screen) HIF-1α–NanoLuc Activity Efficacy): 50%; Emax (HIF-1α–NanoLuc; read-out: Pathway inhibitors (validation) HIF-1α–NanoLuc Activity Efficacy): 98 ± 8%; IC50 (HIF-1α–NanoLuc; read-out: Pathway inhibitors (validation) HIF-1α–NanoLuc Activity IC50): 1960 ± 350 nM |
| C[C@H]1O[C@@H](O[C@H]2CC[C@@]3(C)[C@H](CC[C@@H]4[C@@H]3C[C@@H](O)[C@]3(C)[C@@H](C5=CC(=O)OC5)CC[C@]43O)C2)C[C@H](O)[C@@H]1O[C@H]1C[C@H](O)[C@H](O[C@H]2C[C@H](O)[C@H](O[C@@H]3O[C@H](CO)[C@@H](O)[C@H](O)[C@H]3O)[C@@H](C)O2)[C@@H](C)O1 [Deslanoside] | – | – | 102 ± 3 | – | 300 | 115 | 108 ± 9 | 115 | 97 ± 3 | 310 ± 40 | 160 ± 30 | Inactive | 63 ± 8 | 2590 ± 2870 | 320 ± 90 | – | – | IC50 (HIF-1α–NanoLuc; [17]): 390 ± 30 nM |
| C[C@H]1O[C@@H](O[C@H]2[C@@H](O)C[C@H](O[C@H]3[C@@H](O)C[C@H](O[C@H]4CC[C@@]5(C)[C@H](CC[C@@H]6[C@@H]5CC[C@]5(C)[C@@H](C7=CC(=O)OC7)CC[C@]65O)C4)O[C@@H]3C)O[C@@H]2C)C[C@H](O)[C@@H]1O [Digitoxin] | – | – | 97 | – | 30 | 124 | 101 ± 1 | 124 | 101 ± 4 | 90 ± 20 | 30 ± 10 | Inactive | 97 ± 8 | 2290 ± 3130 | 90 ± 30 | – | – | IC50 (HIF-1α–NanoLuc; [17]): 110 ± 10 nM |
| O=c1cc(N2CCOCC2)oc2c(-c3ccccc3)cccc12 [LY-294002] | – | – | 35 ± 8 | – | – | – | – | – | 73 ± 4 | 15400 ± 1040 | 12000 ± 2250 | Inactive | – | – | – | 50 ± 9 | 50 ± 9 | IC50 (HIF-1α–NanoLuc; [19]): 14600 ± 3540 nM; HCT116 3-Day Viability IC50 (HCT116 cells; Table S8, 3 days): Inactive; Viability (BLA) confirmatory IC50 (HRE–bla ME-180 cells): Inactive |
| O=C(Nc1ccc([N+](=O)[O-])cc1Cl)c1cc(Cl)ccc1O [Niclosamide] | 2040 | 91 | 84 ± 6 | 230 ± 50 | – | – | – | – | – | – | 1670 ± 460 | – | 83 ± 6 | – | 1630 ± 2580 | – | – | IC50 [2]: 40 ± 30 nM; Emax [2]: 87% |
| O=C(NOCC1CC1)c1ccc(F)c(F)c1Nc1ccc(I)cc1Cl [PD 184352] | – | – | 74 ± 5 | – | – | – | – | – | 100 ± 7 | 18000 ± 1170 | 5980 ± 690 | Inactive | 97 ± 4 | 13200 | 5930 ± 4080 | 99 ± 2 | 99 ± 2 | Emax (HIF-1α–NanoLuc; [21]): 64%; IC50 (HIF-1α–NanoLuc; [22]): 840 nM; IC50 (HIF-1α–NanoLuc; [19]): 13700 ± 930 nM; Emax (HIF-1α–NanoLuc; [23]): 64% |
| C[C@@H]1O[C@@H](O[C@@H]2C=C3CC[C@@H]4[C@H](CC[C@]5(C)[C@@H](c6ccc(=O)oc6)CC[C@]45O)[C@@]3(C)CC2)[C@H](O)[C@H](O)[C@H]1O [Proscillaridin A] | – | – | 93 ± 3 | – | 10 | 101 | 103 ± 3 | 101 | 98 ± 2 | 20 | 10 | Inactive | 87 ± 20 | 90 ± 30 | 20 | – | – | IC50 (HIF-1α–NanoLuc; [17]): 10 nM; IC50 (HIF-1α–NanoLuc; read-out: HIF-1α–NanoLuc primary IC50): 10 nM |
| CCN(CC)CCNC(=O)c1c(C)[nH]c(/C=C2\C(=O)Nc3ccc(F)cc32)c1C [Sunitinib] | 19000 ± 4340 | 81 | 81 ± 32 | 17000 ± 3170 | – | – | – | – | – | – | – | – | – | – | 16000 ± 8130 | 80 ± 15 | 80 ± 15 | IC50 (HIF-1α–NanoLuc; HCT-116, Table 1, HCT116 reporter cells, hypoxia 1% O2, 18 h, confirmatory, read-out: HIF-1α-NanoLuc IC50): 11300 ± 3710 nM; Emax (HIF-1α–NanoLuc; Table 1, percentage of inhibition compared to DMSO controls, read-out: HIF-1α-NanoLuc Efficacy (converted)): 80%; Emax (HIF-1α–NanoLuc; [21]): 60%; IC50 (HIF-1α–NanoLuc; [22]): 1680 nM; Emax (HIF-1α–NanoLuc; [23]): 60%; IC50 ([3]; Homo sapiens, HCT-116, Table S7, confirmatory screen, 1% O2, 18 h): 26400 ± 9410 nM; Emax ([3]; Homo sapiens, HCT-116, Table S7, confirmatory screen, read-out: Viability (Luc) confirmatory Efficacy): 26 ± 7%; IC50 (HCT116 cells; [8]): 37200 nM; HCT116 3-Day Viability IC50 (HCT116 cells; Table S8, 3 days): Inactive; Emax (HRE–bla ME-180 cells): 60 ± 38% |
| CCCS(=O)(=O)Nc1ccc(F)c(C(=O)c2c[nH]c3ncc(-c4ccc(Cl)cc4)cc23)c1F [Vemurafenib] | – | – | 75 ± 11 | – | – | – | – | – | 92 ± 5 | 14400 ± 1970 | 4100 ± 700 | Inactive | 63 ± 4 | 31800 ± 9410 | 16000 ± 8130 | 66 ± 6 | 66 ± 6 | IC50 (HIF-1α–NanoLuc; [19]): 13600 ± 6380 nM; Emax (HRE–bla ME-180 cells): 27 ± 10% |
| COC[C@H]1OC(=O)c2coc3c2[C@@]1(C)C1=C(C3=O)[C@@H]2CCC(=O)[C@@]2(C)C[C@H]1OC(C)=O [Wortmannin] | – | – | 91 ± 8 | – | – | – | – | – | 80 ± 3 | 7000 ± 4330 | 570 ± 170 | – | – | – | 11400 ± 4790 | – | – | HCT116 3-Day Viability IC50 (HCT116 cells; Table S8, 3 days): Inactive; Emax (HRE–bla ME-180 cells): 47 ± 11% |
